Target: Stromelysin (Homo sapiens, UniProt P08254)
Test: Stromelysin inhibition, in vitro particle concentration fluorescence assay (TABLE 1, MMP Inhibition Constants)
Format: biochemical
Details: fluorescein/biotin substrate, MMP buffer pH 7.5, room temperature, 15 min preincubation with enzyme, 1-3 h with substrate
Protocol: Inhibitory activity is evaluated in one or more of the MMP enzymes (stromelysin, gelatinase, and collagenase) in vitro using particle concentration fluorescence assay. An inhibitor binds to MMP enzymes which prevents the degradation of a substrate by stromelysin, gelatinase, or collagenase. The substrate has attached to it a fluorescein and a biotin moiety. The intact substrate then binds to an avidin-coated particle via the biotin moiety. Once the particle is washed and dried, a fluorescent signal is generated since the fluorescent group is attached to the particle. Without an inhibitor present, the substrate is degraded by MMP enzymes and the fluorescein group is removed, therefore, no fluorescent signal can be detected. Testing compounds are dissolved in DMSO to the desired concentration, then the solutions are diluted to 1:5 with MMP buffer (50 mM Tris-HCl, pH 7.5; 150 mM NaCl; 0.02% NaN3). Serial two-fold dilutions of each compound are prepared. A concentrated, activated enzyme solution is transferred into each plate of the testing compounds, and the mixture is incubated at room temperature for 15 minutes. Thawed MMP substrate is then added into all plates, and the plates are incubated in the dark for 1-3 hours at room temperature. At this point, the substrate mixture is mixed with 0.1% avidin-coated polystyrene particles. After 15 minutes, the fluorescence values are measured following filtration and washing of the beads. Ki values are then calculated.

Chain of Stromelysin (P08254 100-477): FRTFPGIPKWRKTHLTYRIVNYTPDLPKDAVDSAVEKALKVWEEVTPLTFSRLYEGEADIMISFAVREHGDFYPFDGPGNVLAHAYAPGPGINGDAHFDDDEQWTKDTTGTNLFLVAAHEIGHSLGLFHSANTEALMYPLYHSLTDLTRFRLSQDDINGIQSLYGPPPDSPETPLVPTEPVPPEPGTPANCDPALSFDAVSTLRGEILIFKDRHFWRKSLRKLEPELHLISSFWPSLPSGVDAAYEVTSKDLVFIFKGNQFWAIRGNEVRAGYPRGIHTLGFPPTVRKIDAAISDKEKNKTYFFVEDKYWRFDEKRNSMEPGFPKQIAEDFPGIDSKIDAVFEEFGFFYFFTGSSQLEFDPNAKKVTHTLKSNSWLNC

Row | Structure (SMILES) | Ki [µM]
1 | O=C(N[C@@H](CC1CCCCC1)C(=O)Nc1n[nH]c(=S)s1)OCc1ccccc1 [Example 11] | 6.1
2 | CC(C)(C)C(CC(=O)Nc1n[nH]c(=S)s1)NC(=O)OCc1ccccc1 (stereo not shown) [Example 40, [3-[(4,5-dihydro-5-thioxo-1,3,4-thiadiazol-2-yl)amino]-3-oxo-1-(1,1-dimethylethyl)propyl]carbamic acid phenylmethyl ester] | 11.1
3 | O=C(CC(NC(=O)COCc1ccccc1)c1ccccc1)Nc1n[nH]c(=S)s1 (stereo not drawn) [Example 49, N-(4,5-dihydro-5-thioxo-1,3,4-thiadiazol-2-yl)-β-[(phenylmethoxyacetyl)amino]benzenepropanamide] | 0.84
4 | O=C(N[C@@H](Cc1ccccc1)C(=O)Nc1n[nH]c(=S)s1)OCc1ccccc1 [Example 34, (S)-[2-[(4,5-dihydro-5-thioxo-1,3,4-thiadiazol-2-yl)amino]-2-oxo-1-(phenylmethyl)ethyl]carbamic acid phenylmethyl ester] | 6.09
5 | O=C(NCCC[C@H](NC(=O)OCc1ccccc1)C(=O)Nc1n[nH]c(=S)s1)OCc1ccccc1 [Example 31, (S)-[1-[[(4,5-dihydro-5-thioxo-1,3,4-thiadiazol-2-yl)amino]carbonyl]-1,4-butanediyl]bis carbamic acid bis(phenylmethyl) ester] | 2.81
6 | CC(C)(C)OC(=O)NC(C(=O)Nc1n[nH]c(=S)s1)c1ccccc1 (stereo not shown) [Example 24, [2-[(4,5-dihydro-5-thioxo-1,3,4-thiadiazol-2-yl)amino]-2-oxo-1-phenylethyl]carbamic acid 1,1-dimethylethyl ester] | 1.98
7 | O=C(C[C@H](NC(=O)OCc1ccccc1)c1ccccc1)Nc1n[nH]c(=S)s1 [Example 51, (S)-[3-[(4,5-dihydro-5-thioxo-1,3,4-thiadiazol-2-yl)amino]-3-oxo-1-phenylpropyl]carbamic acid phenylmethyl ester] | 1.5
8 | O=C(CC(NC(=O)OCc1ccccc1)c1ccccc1)Nc1nnc(S)s1 (stereo not shown) [Example 41, [3-[(4,5-dihydro-5-thioxo-1,3,4-thiadiazol-2-yl)amino]-3-oxo-1-phenylpropyl]carbamic acid phenylmethyl ester] | 0.4
9 | CC(C)(C)OC(=O)N[C@@H](Cc1c(F)c(F)c(F)c(F)c1F)C(=O)Nc1n[nH]c(=S)s1 [Example 28, (S)-[2-[(4,5-dihydro-5-thioxo-1,3,4-thiadiazol-2-yl)amino]-2-oxo-1-[(pentafluorophenyl)methyl]ethyl]carbamic acid 1,1-dimethylethyl ester] | 2.22
10 | O=C(CC(NC(=O)OCC1c2ccccc2-c2ccccc21)c1ccccc1)Nc1n[nH]c(=S)s1 (stereo not shown) [Example 46, [3-[(4,5-dihydro-5-thioxo-1,3,4-thiadiazol-2-yl)amino]-3-oxo-1-phenylpropyl]carbamic acid 9H-fluoren-9-yl methyl ester] | 0.44
11 | CC(C)(C)[C@H](NC(=O)Cc1c[nH]c2ccccc12)C(=O)Nc1n[nH]c(=S)s1 [Example 32] | 0.41
12 | CNC(=O)C(C(=O)Nc1n[nH]c(=S)s1)C(C)(C)C (stereo not drawn) [Example 59, N-methyl-α-[[(4,5-dihydro-5-thioxo-1,3,4-thiadiazol-2-yl)amino]carbonyl]-3,3-dimethylbutanamide] | 4.3
13 | O=C(NCC(C(=O)Nc1n[nH]c(=S)s1)c1ccccc1)OCc1ccccc1 (stereo not shown) [Example 38, [3-[(4,5-dihydro-5-thioxo-1,3,4-thiadiazol-2-yl)amino]-3-oxo-2-phenylpropyl]carbamic acid phenylmethyl ester] | 2.27
14 | O=C(CCCCc1ccccc1)NC(C(=O)Nc1n[nH]c(=S)s1)c1ccccc1 (stereo not shown) [Example 15, N-[2-[(4,5-dihydro-5-thioxo-1,3,4-thiadiazol-2-yl)amino]-2-oxo-1-phenylethyl]benzenepentanamide] | 1.38

Further lines, results first:

Row | Ki [µM] | Structure (SMILES)
15 | 1.36 | O=C(CC(NC(=O)c1ccccc1)c1ccccc1)Nc1n[nH]c(=S)s1 (stereo not drawn) [Example 42, β-(benzoylamino)-N-(4,5-dihydro-5-thioxo-1,3,4-thiadiazol-2-yl)benzenepropanamide]
16 | 2.42 | CCCCC(NC(=O)OCc1ccccc1)C(=O)Nc1n[nH]c(=S)s1 (stereo not shown) [Example 5, [1-[[(4,5-dihydro-5-thioxo-1,3,4-thiadiazol-2-yl)amino]carbonyl]pentyl]carbamic acid phenylmethyl ester]
17 | 0.95 | CC[C@H](C)[C@H](NC(=O)OCC1c2ccccc2-c2ccccc21)C(=O)Nc1n[nH]c(=S)s1 [Example 4, [S-(R*,R*)]-[1-[[(4,5-dihydro-5-thioxo-1,3,4-thiadiazol-2-yl)amino]carbonyl]-2-methylbutyl]carbamic acid 9H-fluoren-9-yl-methyl ester]
18 | 6.32 | CCCCCCCC(NC(=O)OCc1ccccc1)C(=O)Nc1n[nH]c(=S)s1 (stereo not shown) [Example 10, [1-[[(4,5-dihydro-5-thioxo-1,3,4-thiadiazol-2-yl)amino]carbonyl]octyl]carbamic acid phenylmethyl ester]
19 | 2.48 | CC(C)(C)OC(=O)N[C@@H](Cc1ccc(NC(=O)OCc2ccccc2)cc1)C(=O)Nc1n[nH]c(=S)s1 [Example 25, (S)-[4-[3-[(4,5-dihydro-5-thioxo-1,3,4-thiadiazol-2-yl)amino]-2-[[(1,1-dimethylethoxy)carbonyl]amino]-3-oxopropyl]phenyl]carbamic acid phenylmethyl ester]
20 | 0.38 | O=C(COCc1ccccc1)NC(C(=O)Nc1n[nH]c(=S)s1)c1ccccc1 (stereo not drawn) [Example 16, N-(4,5-dihydro-5-thioxo-1,3,4-thiadiazol-2-yl)-α-[[(phenylmethoxy)acetyl]amino]benzeneacetamide]
21 | 3.06 | CC(C)(C)OC(=O)NC(C(=O)Nc1n[nH]c(=S)s1)C(C)(C)/C=C/Cc1ccccc1 (stereo not shown) [Example 20, (E)-(1-(((4,5-dihydro-5-thioxo-1,3,4-thiadiazol-2-yl)amino)carbonyl)-2,2-dimethyl-5-phenyl-3-pentenyl)carbamic acid 1,1-dimethylethyl ester]
22 | 9.45 | O=C(NC(CSCc1ccccc1)C(=O)Nc1n[nH]c(=S)s1)OCc1ccccc1 (stereo not shown) [Example 9, [2-[(4,5-dihydro-5-thioxo-1,3,4-thiadiazol-2-yl)amino]-2-oxo-1-[[(phenylmethyl)thio]methyl]ethyl]carbamic acid phenylmethyl ester]
23 | 0.69 | O=C(CC(NC(=O)CCc1ccccc1)c1ccccc1)Nc1n[nH]c(=S)s1 (stereo not shown) [Example 44]
24 | 0.53 | CC(C)(C)[C@H](NC(=O)OCc1ccccc1)C(=O)Nc1n[nH]c(=S)s1 [Example 6, (S)-[1-[[(4,5-dihydro-5-thioxo-1,3,4-thiadiazol-2-yl)amino]carbonyl]-2,2-dimethylpropyl]carbamic acid phenylmethyl ester]
25 | 0.84 | O=C(N[C@H](C(=O)Nc1n[nH]c(=S)s1)C1CCCCC1)OCc1ccccc1 [Example 12, (S)-[1-(cyclohexyl)-2-[(4,5-dihydro-5-thioxo-1,3,4-thiadiazol-2-yl)amino]-2-oxoethyl]carbamic acid phenylmethyl ester]
26 | 1.8 | CC(C)(C)OC(=O)NC(C(=O)Nc1n[nH]c(=S)s1)C(C)(C)/C=C\c1ccccc1 (stereo not shown) [Example 18, (Z)-(1-(((4,5-dihydro-5-thioxo-1,3,4-thiadiazol-2-yl)amino)carbonyl)-2,2-dimethyl-4-phenyl-3-butenyl)carbamic acid 1,1-dimethylethyl ester]
27 | 8.06 | O=C(NC(COCc1ccccc1)C(=O)Nc1n[nH]c(=S)s1)OCc1ccccc1 (stereo not shown) [Example 8, [2-[(4,5-dihydro-5-thioxo-1,3,4-thiadiazol-2-yl)amino]-2-oxo-1-[(phenylmethoxy)methyl]ethyl]carbamic acid phenylmethyl ester]
28 | 1.32 | O=C(NCC(Cc1ccccc1)C(=O)Nc1n[nH]c(=S)s1)OCc1ccccc1 (stereo not shown) [Example 39, [3-[(4,5-dihydro-5-thioxo-1,3,4-thiadiazol-2-yl)amino]-3-oxo-2-(phenylmethyl)propyl]carbamic acid phenylmethyl ester]

From patent publication US5830869A, “Thiadiazole amide MMP inhibitors” (priority 1997, dated 1998)
